{
  "source": "patent US7449495B2",
  "about": "“Retinoid derivatives with antiangiogenic, antitumoral and proapoptotic activities” (Sigma-Tau Industrie Farmaceutiche Riunite S.p.A., priority 2001, dated 2008)",
  "key": {"[1]": {"tested_on": "human microvascular endothelial (HMVE) cells", "conditions": "after 96 h of treatment, cited from earlier work; for inhibition (%) at 0.5 μM: relative to vehicle alone control; for IC50: highest concentration evaluated 0.5 μM, read-out: IC50 (concentration inhibiting proliferation by 50%)"}, "[2]": {"tested_on": "human no small cell lung carcinoma NCI-H460", "assay": "Antitumoral activity in human no small cell lung carcinoma model NCI-H460", "format": "in vivo", "conditions": "NCI-H460, 15 mg/kg ip, q7dx3", "protocol": "The ST1926 solution was prepared immediately before use and solubilised in cremophor:ethanol 1:1 and subsequently diluted 1:4 in buffered saline solution. The animal treatments were administered in a volume of 10 ml/kg. […] Measurements of tumor dimensions were performed using a digital calliper (Vernier Caliper) twice weekly, from the time in which the mass was measurable. The tumor mass was evaluated from the size of the two principal dimensions (length and breadth), expressed in mm, applying the formula (length×breadth^2)/2, that is, the tumor volume in mm3. For each experimental group, the percentage of tumor volume inhibition was calculated (TVI %), with respect to the control, namely (100−(T/C %). TVI was evaluated 2 days after the final administration of ST1926.\nA comparison between the TVI values obtained for each group was performed using the non parametric Mann Whitney test for non-paired data, using the Instat software from GraphPad inc."}, "[3]": {"tested_on": "Human prostate carcinoma PC3", "assay": "Cytotoxicity test (sulphorodamine B), PC3", "format": "cell-based", "conditions": "24 h incubation, survival 48 h after removal, read-out: IC50 ± SD", "source_text": "(§1) Different cell lines deriving from solid tumors were also used. • 1. Human prostate carcinoma PC3 and DU145. These cell lines were maintained in RPMI 1640 medium containing 10% FCS, 1% sodium pyruvate and 1% glutamine; • 2. Human colon adenocarcinoma LoVo. This cell line was maintained in HAM's F-12 medium, containing 10% FCS and 1% glutamine. • 3. Human ovarian carcinoma such as A2780 and A2780/Dx, sensitive and resistant to drugs, respectively (doxorubicin, taxol, etoposide, vincristine); IGROV-1 and IGROV-1/Pt, sensitive and resistant to platinum-based chemotherapy, respectively, were maintained in RPMI 1640 medium containing 10% FCS, 1% sodium pyruvate and 1% glutamine; • 4. Human melanoma MeWo and MeS 2.21, glioblastoma GBM, no small cell lung carcinomas A431, NCI—H460, osteosarcomas SAOS and U2OS were maintained in RPMI 1640 medium containing 10% FCS, 1% sodium pyruvate and 1% glutamine.\n(§2) The cytotoxicity tests were carried out using NB4 or HL-60 cells in suspension (10000/well). The cells were seeded in a volume of 250 μl in 96 well plates and incubated for 24 hours at 37° C. […] The optical density was measured using a Multiskan spectrophotometer at 540 nm. […]\n(§3) Cell survival was determined by incubation with ST1926 for 24 hours, 48 hours after the removal of the compound. […]"}, "[4]": {"tested_on": "NB4 cells", "assay": "Pro-differentiating effect on NB4 cells (NBT)", "format": "cell-based", "conditions": "Homo sapiens, NB-4, 72 h, NB4, three days, read-out: AC50 (activating concentration for 50% cellular differentiation) ± SD", "protocol": "NB4 cells were plated at a density of 150000 cells/ml in RPMI 1640 medium containing 10% foetal serum. The cells were then treated with ST1879 or ST1898 at decreasing concentrations starting from 0.4 μM to 0.01 μM and placed in an incubator for three days without any change of the media. To measure the differentiating effect 500000 cells from each sample were collected, centrifuged and resuspended in 1 ml of RPMI 1640 medium containing 10% serum, 1 mg/ml nitroblue tetrazolium (NBT) and 100 ng of PMA (phorbol myristyl acetate). The cells, resuspended as above, were incubated at 37° C. for 60 minutes. At the conclusion of incubation the cells were centrifuged and the precipitate resuspended in 1 ml of PBS containing 10% Triton ×100. The samples were sonicated until lysed and then read by spectrophotometer at a wavelength of 540 nm. Samples containing differentiated cells turn a purplish colour whilst the control samples and/or these with non differentiated cells remain white or much less intensely coloured. The pro-differentiating action of ST1879 or of ST1898 has been evaluated in terms of AC50 (activating concentration for 50% cellular differentiation) as reported below."}, "[5]": {"tested_on": "chicken chorioallantoic membrane vessels, bFGF induced", "assay": "Angiostatic activity in chicken chorioallantoic membrane (CAM) model", "format": "in vivo", "conditions": "for 12th day (72 hours), number of vessels per sponge / Δvessels: mean ± SE", "source_text": "The chicken chorioallantoic membrane is a very vascularised membrane in which the vessels make their appearance at the 4th day of development, develop an arteriovenal system by the 8th day of development, and actively proliferate until the 11th day.\nThe aim of the study was to follow vasal development in the CAM under basal conditions and in the presence of an inducer bFGF (basic Fibroblast Growth Factor) of vasoproliferation. This study used chicken embryonal eggs at the initial stage of their development. On the 3rd day of development an operation to open the shells was performed to make the vessels of the CAM visible. The treatment was administered on the 9th day of development by applying a fragment of sterile gelatine (GELFOAM Pharmacia-Upjohn) about 1 mm^3, to the CAM surface, onto which was administered the bFGF (50 ng/embryo) or the products in question, for 3 consecutive days.\nThe evaluation of the effect of the molecule on vasoproliferation was obtained by a comparison of the vessels at the time of zero treatment with these of later times (12th day)."}, "[6]": {"tested_on": "Human colon adenocarcinoma LoVo", "assay": "Cytotoxicity test (sulphorodamine B), LoVo", "format": "cell-based", "conditions": "24 h incubation, survival 48 h after removal, read-out: IC50 ± SD", "source_text": "as §1, §2, §3"}, "[7]": {"tested_on": "NB4 acute promyelocytic leukaemia cell line", "assay": "Cytotoxicity test (sulphorodamine B), NB4", "format": "cell-based, human", "conditions": "Homo sapiens, 24 h incubation, survival 48 h after removal, read-out: IC50 ± SD", "source_text": "To carry out the cytotoxicity tests, two acute promyelocytic leukaemia (APL) cell lines were used. • 1. Cell line NB4, carrying the chromosomal translocation t(15; 17) which generates the fusion protein PML/RARα. This cell line is extremely sensitive to the differentiating action of pharmaceutical doses of ATRA (10^−7-10^−6 M); • 2. Cell line HL60, which responds to ATRA less sensitively with respect to cell line NB4.\nThese cell lines were maintained in RPMI 1640 containing 10% foetal calf serum (FCS) and 1% glutamine.\nThe cytotoxicity tests were carried out using NB4 or HL-60 cells in suspension (10000/well). The cells were seeded in a volume of 250 μl in 96 well plates and incubated for 24 hours at 37° C. The following day, test compound ST 1926 [(2E)-3-[3′-(1-Adamantyl)-4′-hydroxy[1,1′-biphenyl]-4-yl]-2-propenoate/ic acid] was added at increasing concentrations, and the cells were incubated for a further 24 hours at 37° C. in a humidified atmosphere containing 5% CO2. On the 3rd day, the medium was removed by centrifuging the plate at 1600×g for 10 min and the supernatant decanted. 250 μl of PBS were added; then the plates were centrifuged again at 1600×g for 10 minutes and the supernatant decanted. 200 μl/well of RPMI 1640 medium containing 10% FCS were added and the plates were incubated at 37° C. for a further 48 hours. On the 5th day, the plates were again centrifuged at 1600×g for 10 minutes, and the medium was removed by upturning the plates, 200 μl of PBS and 50 μl of cold, 80% TCA were added. The plates were then left to incubate on ice for at least 1 hour. The TCA was removed by upturning; the plates were washed three times by immersion in distilled water and dried first on paper, then with a jet of hot air. To all wells were added 200 μl of 0.4% sulphorodamine B in 1% acetic acid. The plates were incubated at room temperature for a further 30 minutes. […] The optical density was measured using a Multiskan spectrophotometer at 540 nm.\nas §3"}, "[8]": {"conditions": "bFGF 0.05 + compound 0.25 μg/embryo"}},
  "note": "“And” between values parts separate entries of the source, which are not always exact repeats. Equal values may be shown once.",
  "data": [
    {"compound": "O=C(O)/C=C/c1ccc(-c2ccc(O)c(C34CC5CC(CC(C5)C3)C4)c2)c(Cl)c1", "note": "[3-Cl-AHPC (5)]", "values": [
      {"measurement": "inhibition (%) at 0.5 μM", "setting": "[1]", "value": 60, "unit": "%"},
      {"measurement": "IC50", "setting": "[1]", "value": 300, "unit": "nM"}
    ]},
    {"compound": "COc1ccc(-c2ccc(/C=C/CO)cc2)cc1C12CC3CC(CC(C3)C1)C2", "note": "[Example 7, E-4-(3-(1-adamantyl)-4-methoxyphenyl)cinnamyl alcohol]", "values": [
      {"measurement": "melting point", "value": 148, "unit": "°C"}
    ]},
    {"compound": "CC1=C(/C=C/C(C)=C/C=C/C(C)=C/C(=O)O)C(C)(C)CCC1", "note": "[trans-RA (7), trans-Retinoic Acid]", "values": [
      {"measurement": "inhibition (%) at 0.5 μM", "setting": "[1]", "value": 10, "unit": "%"},
      {"measurement": "IC50", "setting": "[1]", "value": "> 500", "unit": "nM"}
    ]},
    {"compound": "O=C(O)c1ccc2c(Cl)c(-c3ccc(O)c(C45CC6CC(CC(C6)C4)C5)c3)ccc2c1", "note": "[5-Cl-AHPN (2)]", "values": [
      {"measurement": "inhibition (%) at 0.5 μM", "setting": "[1]", "value": 45, "unit": "%"}
    ]},
    {"compound": "CC(=O)O[C@H]1C(=O)[C@@]2(C)[C@H]([C@H](OC(=O)c3ccccc3)[C@]3(O)C[C@H](OC(=O)[C@H](O)[C@@H](NC(=O)c4ccccc4)c4ccccc4)C(C)=C1C3(C)C)[C@]1(OC(C)=O)CO[C@@H]1C[C@@H]2O", "note": "[Taxol, reference compound]", "values": [
      {"measurement": "BWL % Max", "setting": "[2]", "value": 4, "unit": "%"},
      {"measurement": "Lethality", "setting": "[2]", "value": "0/8"},
      {"measurement": "TVI % ± SE", "setting": "[2]", "value": 0, "unit": "%"}
    ]},
    {"compound": "COc1ccc(-c2ccc(/C=C/C(=O)O)cc2)cc1C12CC3CC(CC(C3)C1)C2", "note": "[ST1898, E-4-(3-(1-adamantyl)-4-methoxyphenyl)cinnamic acid]", "values": [
      {"measurement": "IC50", "setting": "[3]", "value": "1700 ± 200", "unit": "nM"},
      {"measurement": "AC50", "setting": "[4]", "value": 19, "unit": "nM"},
      {"measurement": "Δvessels, change vs bFGF alone", "setting": "[5]; [8]", "value": "(−71%)"},
      {"measurement": "12th day (72 hours), number of vessels per sponge", "setting": "[5]; [8]", "value": "10 ± 1", "unit": "vessels per sponge"},
      {"measurement": "Δvessels", "setting": "[5]; [8]", "value": "7 ± 1", "unit": "vessels per sponge"},
      {"measurement": "IC50", "setting": "[6]", "value": "380 ± 20", "unit": "nM"},
      {"measurement": "IC50", "setting": "[7]", "value": "8800 ± 600", "unit": "nM"}
    ]},
    {"compound": "bFGF: basic Fibroblast Growth Factor, inducer of vasoproliferation in the CAM model [reference compound]", "values": [
      {"measurement": "12th day (72 hours), number of vessels per sponge", "setting": "[5]; bFGF 0.05 μg/embryo alone", "value": "28 ± 2 vessels per sponge and 19 ± 1 vessels per sponge and 22 ± 1 vessels per sponge"},
      {"measurement": "Δvessels", "setting": "[5]; bFGF 0.05 μg/embryo alone", "value": "24 ± 1 vessels per sponge and 15 ± 1 vessels per sponge and 19 ± 1 vessels per sponge"}
    ]}
  ]
}
